Among the data in the NIST ThermoML archive (doi:10.1016/j.tca.2015.03.003) are Normal melting temperature values, retold here.

± gives the expanded uncertainty stated by the source.

The conditions of this data set: Crystal; DTA.

In the case of `[Cl-].[Na+]` [sodium chloride], the Normal melting temperature was determined as 801.1 ± 4 °C.

Turning to `[Cl-].[K+]` [potassium chloride], the Normal melting temperature worked out at 771.1 ± 4 °C.
